Source: patent publication US6683028B1, “Cyclic guanidine derivatives and their use as pesticides” (Bayer Aktiengesellschaft, priority 1999, dated 2004)

How the values were obtained:
[1] = system: mustard beetle larvae (Phaedon cochleariae); assay: Phaedon Larvae Test; assay type: in vivo; conditions: active compound concentration of 0.1%; after 7 days; cabbage leaves dipped
Description: (§1) Solvent: 7 parts by weight of dimethylformamide
(§2) Emulsifier: 1 part by weight of alkylaryl polyglycol ether
To produce a suitable preparation of active compound, 1 part by weight of active compound is mixed with the stated amount of solvent and the stated amount of emulsifier, and the concentrate is diluted with water to the desired concentration.
Cabbage leaves (Brassica oleracea) are treated by being dipped into the preparation of active compound of the desired concentration and are populated with mustard beetle larvae (Phaedon cochleariae) while the leaves are still moist.
After the desired period of time, the kill in % is determined. 100% means that all beetle larvae have been killed; 0% means that none of the beetle larvae have been killed.

[2] = logP determination by HPLC (EEC directive 79/831 Annex V. A8); assay type: physicochemical; conditions: pH = 2; HPLC gradient method, acetonitrile/0.1% aqueous phosphoric acid
Description: [logP=the logP values were determined in accordance with EEC directive 79/831 Annex V. A8 by HPLC (gradient method, acetonitrile/0.1% aqueous phosphoric acid)]

[3] = system: peach aphid (Myzus persicae); assay: Myzus Test; assay type: in vivo; conditions: active compound concentration of 0.1%; after 6 days; cabbage leaves dipped
Description: as §1, §2
To produce a suitable preparation of active compound, 1 part by weight of active ingredient is mixed with the stated amount of solvent and the stated amount of emulsifier, and the concentrate is diluted with water to the desired concentration.
Cabbage leaves (Brassica oleracea) which are heavily infested by the peach aphid (Myzus persicae) are treated by being dipped into the preparation of active compound of the desired concentration.
After the desired period of time, the kill in % is determined. 100% means that all aphids have been killed; 0% means that none of the aphids have been killed.

## CCCOCN1COCN(Cc2cnc(Cl)s2)C1=N[N+](=O)[O-] [Example 1, 3-(2-chloro-thiazol-5-yl-methyl)-4-nitroimino-5-n-propoxymethyl-perhydro-1,3,5-oxadiazine]
[1]
  kill: 100%
[2]
  chromatographic logP: 1.7
[3]
  kill: 100%
